Experimental data as given in patent US12329823B2 (The Scripps Research Institute, priority 2021, dated 2025).
Read-outs that look alike come from different tables or passages of the source.

Tests used:
cynomolgous monkey GIPR = assay: In vitro potency, cynomolgous monkey GIPR activation (receptor-mediated cAMP synthesis); format: cell-based; conditions: Table 12; read-out: In Vitro Potency GIPR EC50, Cyno
dog GIPR = target: T1, dog GIPR (Canis lupus familiaris, UniProt A0A8I3MPG1); assay: In vitro potency, dog GIPR activation (receptor-mediated cAMP synthesis); format: cell-based
T1 sequence (A0A8I3MPG1 24-449): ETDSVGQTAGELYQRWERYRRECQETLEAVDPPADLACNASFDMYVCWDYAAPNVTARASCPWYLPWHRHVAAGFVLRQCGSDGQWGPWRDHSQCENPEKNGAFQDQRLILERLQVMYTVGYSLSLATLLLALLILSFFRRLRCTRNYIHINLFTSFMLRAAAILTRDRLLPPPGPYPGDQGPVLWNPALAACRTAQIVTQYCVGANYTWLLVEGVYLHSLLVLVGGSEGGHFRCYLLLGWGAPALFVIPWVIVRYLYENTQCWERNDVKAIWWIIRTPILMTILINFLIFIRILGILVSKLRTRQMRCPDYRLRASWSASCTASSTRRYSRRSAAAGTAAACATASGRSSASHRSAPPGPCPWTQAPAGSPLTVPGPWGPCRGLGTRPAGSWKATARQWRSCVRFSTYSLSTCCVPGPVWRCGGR
Description: GLP-1R-CRE or HEK293-GIPR-CRE cells were seeded in 384-well plates at a density of 5000 cells per well and cultured for 18 h in DMEM with 10% FBS at 37° C. and 5% CO2. Cells were treated with peptides in a dose dependent manner for 24 h, and receptor activation was reported by luminescence intensities, using One-Glo (Promega, WI) luciferase reagent following manufacturer's instruction. The EC50 of each peptide was determined using GraphPad Prism 6 software (GraphPad, San Diego, CA). Results are depicted in FIGS. 6A-6B, FIGS. 7A-7B, FIGS. 8A-8B, FIGS. 9A-9B, and Tables 7-12. Measurements of peptide conjugate potency were expressed as half maximal effective concentration (EC50) values.

[1] = High-fat-diet-induced obesity (DIO) mouse model, chronic administration; format: in vivo; conditions: DIO mice
[2] = Plasma stability, 24 h incubation in mouse plasma (LC-MS); format: in vitro ADME
Description: (§1) To investigate the stability of the conjugates in mouse, cyno monkey, dog, and human plasma, conjugate mCMD307 was incubated in plasma for 24 h (Table 13). At certain time intervals a sample of plasma was taken and plasma proteins precipitated. Samples were analyzed using LC-MS.

[3] = format: in vivo, mouse
Description: […]. Peptide dissolved in PBS (pH 8.2) was administered via i.v. or s.c. route into CD1 mice ([…]). Blood samples were collected at the indicated time points and analyzed by in vitro GLP-1R activity assay. The assay was performed in triplicate. Pharmacokinetic analyses were determined by noncompartmental analysis with WinNonLin.
[…]. It is also noteworthy that although our focus for half-life extension was on the serum-binding ability of the stapled peptide, there may be a combination of effects, for example self-assembly and depoting at the injection site, that led to the delayed onset of Cmax and the extended half-life.
CHOK1 cells stably overexpressed human GLP-1R or GIPR (20 μL of 5000 cells per well) were seeded in a white solid 384 well plate covered with metal lid and incubated overnight. On day 2, the culture medium was replaced by fresh medium containing no FBS (for 0% FBS group). Cells were treated with 5 μL peptide in 12-point dose response, in culture medium with 0.5 mM IBMX in triplicate for 30 min at 37° C., 5% CO2. cAMP dynamic 2 kit from Cisbio was used to detect cAMP level. Briefly, 25 μL of cAMP detection reagent (1:1:38 of cAMP-d2, Cryptate conjugate, lysis buffer) per well was added and incubated at room temperature for 1 h. For cell negative control wells, cAMP detection reagent without d2 was added. […] Animals Animal care and experimental procedures were approved by the Institutional Animal Care and Use Committee (IACUC) of Calibr at the Scripps Research Institute, strictly following the NIH guidelines for humane treatment of animals. Pharmacokinetics of peptides in mice Female CD-1 mice (n=4 per group) from Charles River Laboratory were fasted overnight and administered 100 μL of each peptide in phosphate buffered saline by intravenous (i.v.) or subcutaneous (s.c.) route. Food was provided to mice after blood collection at 3 h time point. Blood was collected into heparin tubes and centrifuged at 3,000×g for 15 min. The resulting plasma were then stored at −80° C. for peptide concentration determination. The concentrations of peptides in plasma at each time point were determined by in vitro cell based activity assay. Briefly, HEK293-GLP-1R-CRE cells were treated with plasma samples at different time points (5-point dose response, starting from 1:10 to 1:100 dilution of each plasma sample) and incubated for 16 h in DMEM with 10% FBS at 37° C. with 5% CO2, and the firefly luciferase activity was then measured. Simultaneously, the same peptides were used to obtain standard curves and parameters for Bottom, Top, EC50, and Hill Slope. Relative luciferase unit (RLU) for each plasma sample was used to calculate the peptide concentrations in plasma (nmol/L), using parameters derived from the standard curve: (RLU=Bottom+(Top−Bottom)/(1+10^(Log EC50−Conc.)×Hill Slope)) Peptide concentrations in plasma were obtained and plotted against time points to obtain in vivo half-life of each peptide, using WinNonLin Phoenix software (Pharsight Corp, St. Louis, MO). Oral glucose tolerance test (OGTT) Female Charles River CD-1 mice were fasted overnight and then administrated 150 μL of each peptide in PBS (pH=8.2) by i.v. or s.c. route. […]. Body weight and food intake were monitored daily throughout the study. At the end of the experiment, mice were sacrificed, and visceral fat mass was weighed. Collected plasma was used for cholesterol level determination according to the manufacturer's guide (cholesterol assay kit, Abcam, Cambridge, England) and triglyceride level using a triglyceride colorimetric assay kit (Cayman chemical, Ann Arbor, Michigan). Oil red staining Frozen tissue sections of liver were cut at 10 μm and air dried onto the slides. After fixation in 10% formalin for 5 min, the slides were briefly washed with running tap water for 10 min, followed by rinsing with 60% isopropanol. Subsequently, oil red 0 working solution (0.3% oil red 0) was used to stain lipid for 15 min. […]

[4] = Acute oral glucose tolerance test (OGTT) in wild-type mice, 2 h and 96 h post injection; format: in vivo, mouse; conditions: 96 h after administration; 10 nmol/kg s.c.
in vitro [5] = format: in vitro ADME; conditions: plasma
Description: as §1

human GIPR [6] = target: T2, human GIPR (Homo sapiens, UniProt P48546); assay: In vitro receptor activation reporter assay (CRE-Luc, HEK293-GIPR-CRE cells; receptor-mediated cAMP synthesis); format: cell-based
T2 construct: expressed in transfected cells; host or cells: HEK293 (CRE-HEK293, HEK293-GIPR-CRE)
T2 sequence (P48546 22-466): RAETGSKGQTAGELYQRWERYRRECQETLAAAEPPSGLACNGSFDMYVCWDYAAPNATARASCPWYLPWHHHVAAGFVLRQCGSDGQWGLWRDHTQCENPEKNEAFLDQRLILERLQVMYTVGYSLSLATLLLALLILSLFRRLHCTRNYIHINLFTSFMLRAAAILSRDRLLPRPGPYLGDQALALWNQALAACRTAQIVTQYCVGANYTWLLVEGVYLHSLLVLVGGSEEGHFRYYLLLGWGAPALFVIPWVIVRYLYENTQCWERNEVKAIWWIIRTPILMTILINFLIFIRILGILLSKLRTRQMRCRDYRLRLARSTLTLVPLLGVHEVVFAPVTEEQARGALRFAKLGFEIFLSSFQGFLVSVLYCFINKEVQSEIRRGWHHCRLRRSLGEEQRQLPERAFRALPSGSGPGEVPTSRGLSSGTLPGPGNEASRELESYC
Description: (§2) HEK293 cells were infected with lentivirus encoding firefly luciferase gene under the control of cAMP responsive element (CRE) promoter (Qiagen, The Netherlands) and then were selected using 1 μg mL^−1 puromycin (Life Technologies, Carlsbad) for 1 week. The surviving cells (referred to as CRE-HEK293) were expanded and then transfected with a G418 selective mammalian expression plasmid encoding human GLP-1R or GIPR. In brief, GLP-1R or GIPR plasmid was transfected into CRE-HEK293 cells using Lipofectamine 2000 and selected with 400 μg mL^−1 Geneticin (Life Technologies, Carlsbad, CA). Single colony stable cell line overexpressing CRE-luciferase and GLP-1R or GIPR (HEK293-GLP-1R-CRE or HEK293-GIPR-CRE) was then established for in vitro activity assay.

human GLP-1R [7] = target: T3, human GLP-1R (Homo sapiens, UniProt P43220); assay: In vitro receptor activation reporter assay (CRE-Luc, HEK293-GLP-1R-CRE cells; receptor-mediated cAMP synthesis); format: cell-based; design: expressed in transfected cells; host or cells: HEK293 (CRE-HEK293, HEK293-GLP-1R-CRE); conditions: read-out: EC50 GLP1R
Description: as §2
HEK293 cells were infected with lentivirus encoding firefly luciferase gene under the control of cAMP responsive element (CRE) promoter (Qiagen, The Netherlands) and then were selected using 1 μg/mL puromycin (Life Technologies, Carlsbad) for 1 week. The surviving cells (referred to as CRE-HEK293) were expanded and then transfected with a G418 selective mammalian expression plasmid encoding human GLP-1R. In brief, GLP-1R plasmid was transfected into CRE-HEK293 cells using Lipofectamine 2000 and selected with 400 μg/mL Geneticin (Life Technologies, Carlsbad, CA). Single colony stable cell line overexpressing CRE-luciferase and GLP1R was then established for in vitro activity assay.

in vitro [8] = format: in vitro ADME, cyno monkey; conditions: monkey, plasma
Description: as §1

human GLP-1R [9] = target: T3, human GLP-1R; conditions: literature, in words; cited from earlier work
[10] = In vivo oral glucose tolerance test (OGTT) 12 h after a single S.C. dose; design: species or system mouse; conditions: 10 nmol/kg S.C.; 12 h before glucose
Description: Mice were fasted overnight prior to the oral glucose tolerance test (OGTT), and then dosed with peptide. After 12 h, 1 g of glucose solution per kg body weight was administered orally, and mouse tail blood glucose levels were measured before (0 min) and after glucose challenge for 90 minutes (with measurements at 15, 30, 60 and 90 minutes) (FIG. 16). The data were compared using the unpaired Student's t test. Where appropriate, data were compared using repeated measures or one-way analysis of variance, followed by the Student-Newman-Keuls post hoc test. Calculations for […] (mg/dL*min) were also analyzed and graphed in FIG. 16. […]. […].

human GIPR [11] = target: T2, human GIPR; conditions: literature, in words; cited from earlier work

T3 sequence (P43220 24-463): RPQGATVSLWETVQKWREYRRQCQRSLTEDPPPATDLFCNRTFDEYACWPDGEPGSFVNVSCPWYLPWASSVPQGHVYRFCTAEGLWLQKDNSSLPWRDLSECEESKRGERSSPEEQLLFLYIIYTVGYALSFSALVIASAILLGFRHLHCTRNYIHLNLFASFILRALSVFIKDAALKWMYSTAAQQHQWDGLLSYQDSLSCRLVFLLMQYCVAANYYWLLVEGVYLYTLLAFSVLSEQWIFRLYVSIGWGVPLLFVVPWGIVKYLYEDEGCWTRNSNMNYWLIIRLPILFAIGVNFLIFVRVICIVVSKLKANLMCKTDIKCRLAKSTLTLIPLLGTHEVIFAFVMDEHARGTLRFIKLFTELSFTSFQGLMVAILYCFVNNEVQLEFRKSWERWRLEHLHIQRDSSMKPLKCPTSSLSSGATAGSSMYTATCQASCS

CC[C@H](C)[C@H](NC(=O)[C@H](CO)NC(=O)[C@H](Cc1ccc(O)cc1)NC(=O)[C@H](CC(=O)O)NC(=O)[C@H](CO)NC(=O)[C@@H](NC(=O)[C@H](Cc1ccccc1)NC(=O)[C@@H](NC(=O)CNC(=O)[C@H](CCC(=O)O)NC(=O)[C@H](C)NC(=O)[C@@H](N)Cc1ccc(O)cc1)[C@@H](C)O)[C@@H](C)CC)C(=O)N[C@@H](C)C(=O)N[C@@H](CCSC)C(=O)N[C@@H](CC(=O)O)C(=O)N[C@@H](CCCCN)C(=O)N[C@H](C(=O)N[C@@H](Cc1c[nH]cn1)C(=O)N[C@@H](CCC(N)=O)C(=O)N[C@@H](CCC(N)=O)C(=O)N[C@@H](CC(=O)O)C(=O)N[C@@H](Cc1ccccc1)C(=O)N[C@H](C(=O)N[C@@H](CC(N)=O)C(=O)N[C@@H](Cc1c[nH]c2ccccc12)C(=O)N[C@@H](CC(C)C)C(=O)N[C@@H](CC(C)C)C(=O)N[C@@H](C)C(=O)N[C@@H](CCC(N)=O)C(=O)N[C@@H](CCCCN)C(=O)NCC(=O)N[C@@H](CCCCN)C(=O)N[C@@H](CCCCN)C(=O)N[C@@H](CC(N)=O)C(=O)N[C@@H](CC(=O)O)C(=O)N[C@@H](Cc1c[nH]c2ccccc12)C(=O)N[C@@H](CCCCN)C(=O)N[C@@H](Cc1c[nH]cn1)C(=O)N[C@@H](CC(N)=O)C(=O)N[C@H](C(=O)N[C@H](C(=O)N[C@@H](CCC(N)=O)C(=O)O)[C@@H](C)O)[C@@H](C)CC)C(C)C)[C@@H](C)CC [hGIP, reference compound] showed an EC50 (cynomolgous monkey GIPR) of 0.69 nM and an EC50 (dog GIPR) of 0.7 nM.

In the case of CC[C@H](C)[C@H](NC(=O)[C@H](CO)NC(=O)[C@H](Cc1ccc(O)cc1)NC(=O)[C@H](CC(=O)O)NC(=O)[C@H](CO)NC(=O)[C@@H](NC(=O)[C@H](Cc1ccccc1)NC(=O)[C@@H](NC(=O)CNC(=O)[C@H](CCC(=O)O)NC(=O)C(C)(C)NC(=O)[C@@H](N)Cc1ccc(O)cc1)[C@@H](C)O)[C@@H](C)O)C(=O)N[C@@H](Cc1ccc(O)cc1)C(=O)N[C@H]1CCCCNC(=O)CN(C(=O)CCNC(=O)CCOCCOCCOCCNC(=O)CCCCCCCCCCCCCCCCC(=O)O)CC(=O)NCCCC[C@@H](C(=O)N[C@@H](Cc2ccccc2)C(=O)N[C@H](C(=O)N[C@@H](CC(N)=O)C(=O)N[C@@H](Cc2c[nH]c3ccccc23)C(=O)N[C@@H](CC(C)C)C(=O)N[C@@H](CC(C)C)C(=O)N[C@@H](C)C(=O)NCC(=O)NCC(=O)N2CCC[C@H]2C(=O)N[C@@H](CO)C(=O)N[C@@H](CO)C(=O)NCC(=O)N[C@@H](C)C(=O)N2CCC[C@H]2C(=O)N2CCC[C@H]2C(=O)N2CCC[C@H]2C(=O)N[C@@H](CO)C(N)=O)C(C)C)NC(=O)C(C)(C)NC(=O)[C@H](C)NC(=O)[C@H](C)NC(=O)[C@H](CCC(N)=O)NC(=O)[C@H](CCCCN)NC(=O)[C@H](CC(=O)O)NC1=O [mCMD307, YAibEGT-FTSDY-SIYXD-KQAAAib-XFVNW-LLAGG-PSSGA-PPPS-NH2 (where each X is K) (SEQ ID NO: 39)], the “body weight, food intake” value ([1]; 40 μg/kg, FIG. 5A) is reported as “significantly reduced body weight food intake”, the fed blood glucose ([1]; day 21, versus PBS, FIG. 5B) is reported as “significantly lower than compared to PBS-treated DIO mice” and the body weight ([1]; s.c., FIG. 5A) is reported as “steady reduction in body weight”. For the same compound, the “fasting blood glucose levels” value ([1]; s.c., FIG. 5A) was “steady reduction”, the remaining at 24 h [2] was 53% and the AUC0-last ([3]; Table 6, plasma, route not given) was 59200 ± 6810 ng·h/mL. It also gave a Tmax ([3]; Table 6, plasma, route not stated in table (s.c. 1 mg kg-1 / i.v. 0.3 mg kg-1 per FIG. 3)) of 2.33 ± 1.16 h, a Cmax ([3]; mouse, in vivo) of 4710 ± 659 ng/mL and a Vd ([3]; mouse, in vivo) of 0.18 ± 0.05 L/kg. The clearance ([3]; mouse, in vivo) was 0.28 ± 0.04 mL/min/kg, the half-life ([3]; mouse, in vivo) was 11.6 ± 0.85 h and the fasted glucose levels [4] was “significantly reduce fasted glucose levels”. The “glucose handling (OGTT) versus vehicle” value [4] was “more significant improvements in handling glucose”, the remaining at 24 h (in vitro [5]; dog) was 92% and the remaining at 24 h (in vitro [5]; human) was 92%. The EC50 (human GIPR [6]; Table 8, read-out: EC50 GIPR) was 0.01 nM, the EC50 (human GIPR [6]; unnumbered table, run 02/19, read-out: EC50 GIPR 02/19) was 0.04 nM and the EC50 (human GLP-1R [7]; Table 7) was 0.01 nM. It also gave an EC50 (human GLP-1R [7]; Table 8) of 0.03 nM and a remaining at 24 h (in vitro [8]) of 87%.

For Tirzepatide, the “GLP-1 receptor binding versus native hGLP-1” value (human GLP-1R [9]) is listed as “approximately five times lower GLP-1 receptor binding than native hGLP-1”, the EC50 (cynomolgous monkey GIPR) is listed as 0.08 nM and the “effects on glucose tolerance” value [10] is listed as “indistinguishable effects on glucose tolerance”. The “binding affinity to human GIPR versus hGIP” value (human GIPR [11]) was “comparable affinity than that of hGIP”.
